Test results: patent EP0322643A1, “Medicines containing as a mixture interferon and 1-desoxy-piperidinoses, process for their manufacture and their use” (BAYER AG, priority 1987, dated 1989)

Test system: Visna-Virus
Experiment: Visna virus test: inhibition of virus-induced cytopathic effect in infected sheep fibroblast cell cultures
Type: cell-based
Set-up: key to Antivirale Wirkung in der Zellkultur*: 3 = kompletter antiviraler Schutzeffekt; 100% Schutz der Zellen vor der Infektion; 2 = 50% Schutzeffekt der infizierten Zellkultur; 1- 10 - 20% Schutzeffekt der infizierten Zellkultur; 0 = komplette Zerstörung der infizierten Zellkultur
Settings: for Antivirale Wirkung in der Zellkultur*: compound alone, Schafszellen
Description: In Zellkulturen, die mit Visna-Virus infiziert sind, treten 5 bis 10 Tage nach der Infektion ausgeprägte virusinduzierte, zytopathische Effekte auf. Durch Behandlung der infizierten Zellkulturen mit den erfindungsgemäßen Kombinationen von Verbindungen der allgemeinen Formel (I) und Interferon konnte das Auftreten dieser zytopathischen Effekte verhindert werden.
Der Visna-Virus-Test wurde nach der Methode von 0. Narayan et al., Journal of Infectious Diseases 135, 5, 1977, 800 - 806 durchgeführt. Dazu wurden die erfindungsgemäßen Kombinationen von Verbindungen der allgemeinen Formel (I) und Interferon im Kulturmedium zu nicht zytotoxischen Konzentrationen verdünnt, und zwar in 96er Microtiterplatten. Anschließend wurden zu jeder Verdünnung der Wirkstoffe Schafsfibroblastenzellen (5 x 10⁴ Zellen pro Napf) in Kulturmedium zugeführt.
Jedes Näpfchen erhielt dann 50 µl einer Visna-Viruslösung mit einem Titer von ca. 2,5 x 10⁴ TCID₅₀ (TCID = tissue culture infectious dosis). Diese Virusdosis entspricht einer MOI (Multiplizität der Infektion) von ca. 0,05.
Unter diesen Infektionsbedingungen resultierte zwischen Tag 5 und Tag 10 in einer Infektionskontrolle ohne Substanz ein virusinduzierter, zytopathischer Effekt. Die infizierten und behandelten Zellen und die Kontrollzellen wurden 7 Tage bei 37°C, 5% CO₂ inkubiert.
Bei Auftreten des virusinduzierten zytopathogenen Effektes in der unbehandelten Viruskontrolle wurden die Kulturen mit Formalin fixiert und anschließend mit einer Giemsa-Lösung gefärbt. Die inhibitorische Konzentration (IC₅₀) wurde mikroskopisch als die Konzentration ermittelt, bei der der zytopathische Effekt um 50% gehemmt wurde, im Vergleich zur unbehandelten Viruskontrolle, die 100% Zellzerstörung aufwies.

CC(C)c1ccc(NC(=O)CCN2C[C@@H](O)[C@@H](O)[C@H](O)[C@H]2CO)cc1 [3-(1,5-Didesoxy-1,5-imino-D-mannit-N-yl)-propionsäure-4-isopropyl-anilid]
Reduktion der Konzentration der Einzelkomponenten um den Faktor (by combining both active substances, versus the single component alone): 30
Antivirale Wirkung in der Zellkultur* (Konzentration der Testsubstanz 0,03 mg/ml): 2 (2 = 50% Schutzeffekt der infizierten Zellkultur)
Antivirale Wirkung in der Zellkultur* (Konzentration der Testsubstanz 0,5 mg/ml): 3 (3 = kompletter antiviraler Schutzeffekt; 100% Schutz der Zellen vor der Infektion)
Antivirale Wirkung in der Zellkultur* (Konzentration der Testsubstanz 0,06 mg/ml): 3 (3 = kompletter antiviraler Schutzeffekt; 100% Schutz der Zellen vor der Infektion)
Antivirale Wirkung in der Zellkultur* (Konzentration der Testsubstanz 0,25 mg/ml): 3 (3 = kompletter antiviraler Schutzeffekt; 100% Schutz der Zellen vor der Infektion)
Antivirale Wirkung in der Zellkultur* (Konzentration der Testsubstanz 0,001 mg/ml): 0
Antivirale Wirkung in der Zellkultur* (Konzentration der Testsubstanz 1 mg/ml): 3 (3 = kompletter antiviraler Schutzeffekt; 100% Schutz der Zellen vor der Infektion)
Antivirale Wirkung in der Zellkultur* (Konzentration der Testsubstanz 0,003 mg/ml): 0
Antivirale Wirkung in der Zellkultur* (Konzentration der Testsubstanz 0,007 mg/ml): 0
Antivirale Wirkung in der Zellkultur* (Konzentration der Testsubstanz 0,015 mg/ml): 1 (1- 10 - 20% Schutzeffekt der infizierten Zellkultur)
Antivirale Wirkung in der Zellkultur* (Konzentration der Testsubstanz 0,125 mg/ml): 3 (3 = kompletter antiviraler Schutzeffekt; 100% Schutz der Zellen vor der Infektion)
